# Experimental data from patent US20250206732A1, “COMPOUNDS AND METHODS FOR THE TARGETED DEGRADATION OF KRAS” (Arvinas Operations, Inc., priority 2022, published 2025).
# Assays:
# SW1573 HiBiT-KRASG12C = target: T1, SW1573 HiBiT-KRASG12C (Homo sapiens, UniProt P01116, G12C); assay: HiBiT degradation assay (G12C), SW1573 HiBiT-KRASG12C cells; assay type: cell-based; settings: 24 hours treatment; for DC50: HiBiT luminescence; for Dmax: maximum degradation observed;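 as to DC50: Letter grades: C is 1000 to 3000 nM and D is above 3000 nM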
# T1 construct: expressed in transfected cells
# Method in brief: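 SW1573 cells expressing N-terminal HiBiT-KRASG12C (clone E6) treated 24 h at 37 °C with 10 μM to 508 pM compound in 0.5% DMSO, triplicate. HiBiT lytic luminescence normalized to DMSO, 4-parameter fit gives DC50 and Dmax; points with ≥50% alamar blue viability loss excluded.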
# AsPC-1 HiBiT-KRASG12D = target: T2, AsPC-1 HiBiT-KRASG12D (Homo sapiens, UniProt P01116, G12D); assay: HiBiT degradation assay (G12D), AsPC-1 HiBiT-KRASG12D cells; assay type: cell-based; settings: 24 hours treatment; for Dmax: ASPC1, AsPC-1 HiBiT-KRASG12D cells, maximum degradation observed; for DC50: AsPC-1 HiBiT-KRASG12D cells, HiBiT luminescence
# T2 construct: insert the HiBiT tag onto the N-terminus of one or more of the endogenous KRAS alleles; endogenous in cells; host or cells: AsPC-1 (ATCC CRL-1682), CRISPR-Cas9 knock-in clone, one tagged allele
# Method in brief: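 HiBiT-KRAS abundance was read as Nano-Glo HiBiT lytic luminescence (45 min, room temperature) after a PBS wash. Before that, a 4 h alamar blue fluorescence read, normalized to DMSO, monitored viability. Treatment lasted 24 hours at 37 °C, in triplicate, using AsPC-1 cells with endogenous N-terminally HiBiT-tagged KRAS G12D.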
# T2 sequence (P01116 1-188 isoform P01116-2 G12D): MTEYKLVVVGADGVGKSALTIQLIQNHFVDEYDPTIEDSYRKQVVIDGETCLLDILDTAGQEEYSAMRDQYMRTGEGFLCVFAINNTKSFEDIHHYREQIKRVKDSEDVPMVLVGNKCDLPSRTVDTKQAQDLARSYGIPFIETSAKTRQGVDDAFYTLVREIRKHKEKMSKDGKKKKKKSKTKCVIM
# T1 sequence (P01116 1-188 isoform P01116-2 G12C): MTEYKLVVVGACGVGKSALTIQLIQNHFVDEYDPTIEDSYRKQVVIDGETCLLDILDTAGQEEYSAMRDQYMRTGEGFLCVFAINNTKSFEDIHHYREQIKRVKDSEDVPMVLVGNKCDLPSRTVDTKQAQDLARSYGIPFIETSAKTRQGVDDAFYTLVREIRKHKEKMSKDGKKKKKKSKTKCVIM
SMILES,DC50 (SW1573 HiBiT-KRASG12C),Dmax (SW1573 HiBiT-KRASG12C),Dmax (AsPC-1 HiBiT-KRASG12D),DC50 (AsPC-1 HiBiT-KRASG12D)
"Cc1ncsc1-c1ccc([C@H](C)NC(=O)[C@@H]2C[C@@H](O)CN2C(=O)[C@@H](c2cc(OCC3CCN(CCOc4nc(N5CC6CCC(C5)N6)c5cnc(-c6cc(O)cc(Cl)c6C(C)C)c(F)c5n4)CC3)no2)C(C)C)cc1 [Compound 41, (2S,4R)-1-[(2R)-2-[3-({1-[2-({7-[3-chloro-5-hydroxy-2-(propan-2-yl)phenyl]-4-{3,8-diazabicyclo[3.2.1]octan-3-yl}-8-fluoropyrido[4,3-d]pyrimidin-2-yl}oxy)ethyl]piperidin-4-yl}methoxy)-1,2-oxazol-5-yl]-3-methylbutanoyl]-4-hydroxy-N-[(1S)-1-[4-(4-methyl-1,3-thiazol-5-yl)phenyl]ethyl]pyrrolidine-2-carboxamide]",> 3000 nM,20 to 60%,20 to 60%,< 600 nM
"CCc1cccc2cc(O)cc(-c3ncc4c(N5CCCCCC5)nc(OC[C@@]56CCCN5[C@H](COC(=O)N5CCN(c7cc([C@H](C(=O)N8C[C@H](O)C[C@H]8C(=O)N[C@@H](C)c8ccc(-c9scnc9C)cc8)C(C)C)on7)CC5)CC6)nc4c3F)c12 [Compound 42, [(3S,7aS)-7a-({[4-(azepan-1-yl)-7-(8-ethyl-3-hydroxynaphthalen-1-yl)-8-fluoropyrido[4,3-d]pyrimidin-2-yl]oxy}methyl)-hexahydro-1H-pyrrolizin-3-yl]methyl 4-{5-[(2R)-1-[(2S,4R)-4-hydroxy-2-{[(1S)-1-[4-(4-methyl-1,3-thiazol-5-yl)phenyl]ethyl]carbamoyl}pyrrolidin-1-yl]-3-methyl-1-oxobutan-2-yl]-1,2-oxazol-3-yl}piperazine-1-carboxylate]",≤ 600 nM,80 to 100%,80 to 100%,< 600 nM
"Cc1ncsc1-c1ccc([C@H](C)NC(=O)[C@@H]2C[C@@H](O)CN2C(=O)[C@@H](c2cc(OCC3CCN(CCOc4nc(N5CC6CCC(C5)N6)c5cnc(-c6cc(O)cc(Cl)c6C6CC6)c(F)c5n4)CC3)no2)C(C)C)cc1 [Compound 43, (2S,4R)-1-[(2R)-2-(3-{[1-(2-{[7-(3-chloro-2-cyclopropyl-5-hydroxyphenyl)-4-{3,8-diazabicyclo[3.2.1]octan-3-yl}-8-fluoropyrido[4,3-d]pyrimidin-2-yl]oxy}ethyl)piperidin-4-yl]methoxy}-1,2-oxazol-5-yl)-3-methylbutanoyl]-4-hydroxy-N-[(1S)-1-[4-(4-methyl-1,3-thiazol-5-yl)phenyl]ethyl]pyrrolidine-2-carboxamide]",> 3000 nM,20 to 60%,80 to 100%,< 600 nM
"CCc1cccc2cc(O)cc(-c3ncc4c(N5CCCCCC5)nc(OC[C@@]56CCCN5[C@H](COC(=O)N5CCN(c7cc([C@@H](C(=O)N8C[C@H](O)C[C@H]8C(=O)N[C@@H](C)c8ccc(-c9scnc9C)cc8)C(C)C)on7)CC5)CC6)nc4c3F)c12 [Compound 44, [(3S,7aS)-7a-({[4-(azepan-1-yl)-7-(8-ethyl-3-hydroxynaphthalen-1-yl)-8-fluoropyrido[4,3-d]pyrimidin-2-yl]oxy}methyl)-hexahydro-1H-pyrrolizin-3-yl]methyl 4-{5-[(2S)-1-[(2S,4R)-4-hydroxy-2-{[(1S)-1-[4-(4-methyl-1,3-thiazol-5-yl)phenyl]ethyl]carbamoyl}pyrrolidin-1-yl]-3-methyl-1-oxobutan-2-yl]-1,2-oxazol-3-yl}piperazine-1-carboxylate]",> 3000 nM,,< 20%,< 600 nM
"CCc1cccc2cc(O)cc(-c3ncc4c(N5CCCCCC5)nc(OC[C@]56CCCN5[C@@H](COC(=O)N5CCN(c7cc([C@H](C(=O)N8C[C@H](O)C[C@H]8C(=O)N[C@@H](C)c8ccc(-c9scnc9C)cc8)C(C)C)on7)CC5)CC6)nc4c3F)c12 [Compound 45, [(3R,7aR)-7a-({[4-(azepan-1-yl)-7-(8-ethyl-3-hydroxynaphthalen-1-yl)-8-fluoropyrido[4,3-d]pyrimidin-2-yl]oxy}methyl)-hexahydro-1H-pyrrolizin-3-yl]methyl 4-{5-[(2R)-1-[(2S,4R)-4-hydroxy-2-{[(1S)-1-[4-(4-methyl-1,3-thiazol-5-yl)phenyl]ethyl]carbamoyl}pyrrolidin-1-yl]-3-methyl-1-oxobutan-2-yl]-1,2-oxazol-3-yl}piperazine-1-carboxylate]",≤ 600 nM,60 to 80%,80 to 100%,< 600 nM
"CCc1cccc2cc(O)cc(-c3ncc4c(N5CCCCCC5)nc(OC[C@]56CCCN5[C@@H](COC(=O)N5CCN(c7cc([C@@H](C(=O)N8C[C@H](O)C[C@H]8C(=O)N[C@@H](C)c8ccc(-c9scnc9C)cc8)C(C)C)on7)CC5)CC6)nc4c3F)c12 [Compound 46, [(3R,7aR)-7a-({[4-(azepan-1-yl)-7-(8-ethyl-3-hydroxynaphthalen-1-yl)-8-fluoropyrido[4,3-d]pyrimidin-2-yl]oxy}methyl)-hexahydro-1H-pyrrolizin-3-yl]methyl 4-{5-[(2S)-1-[(2S,4R)-4-hydroxy-2-{[(1S)-1-[4-(4-methyl-1,3-thiazol-5-yl)phenyl]ethyl]carbamoyl}pyrrolidin-1-yl]-3-methyl-1-oxobutan-2-yl]-1,2-oxazol-3-yl}piperazine-1-carboxylate]",> 3000 nM,,,> 3000 nM
"Cc1ncsc1-c1ccc([C@H](C)NC(=O)[C@@H]2C[C@@H](O)CN2C(=O)[C@@H](c2cc(OCC3CCN(CCOc4nc(N5CC6CCC(C5)N6)c5cnc(-c6c(OC(F)(F)F)ccc7[nH]ncc67)c(F)c5n4)CC3)no2)C(C)C)cc1 [Compound 47, (2S,4R)-1-[(2R)-2-{3-[(1-{2-[(4-{3,8-diazabicyclo[3.2.1]octan-3-yl}-8-fluoro-7-[5-(trifluoromethoxy)-1H-indazol-4-yl]pyrido[4,3-d]pyrimidin-2-yl)oxy]ethyl}piperidin-4-yl)methoxy]-1,2-oxazol-5-yl}-3-methylbutanoyl]-4-hydroxy-N-[(1S)-1-[4-(4-methyl-1,3-thiazol-5-yl)phenyl]ethyl]pyrrolidine-2-carboxamide]",> 3000 nM,,,> 3000 nM
"C#Cc1cccc2cc(O)cc(-c3ncc4c(N5CC6CCC(C5)N6)nc(OCCN5CCC(COc6cc([C@H](C(=O)N7C[C@H](O)C[C@H]7C(=O)N[C@@H](C)c7ccc(-c8scnc8C)cc7)C(C)C)on6)CC5)nc4c3F)c12 [Compound 48, (2S,4R)-1-[(2R)-2-{3-[(1-{2-[(4-{3,8-diazabicyclo[3.2.1]octan-3-yl}-7-(8-ethynyl-3-hydroxynaphthalen-1-yl)-8-fluoropyrido[4,3-d]pyrimidin-2-yl)oxy]ethyl}piperidin-4-yl)methoxy]-1,2-oxazol-5-yl}-3-methylbutanoyl]-4-hydroxy-N-[(1S)-1-[4-(4-methyl-1,3-thiazol-5-yl)phenyl]ethyl]pyrrolidine-2-carboxamide]",> 3000 nM,,80 to 100%,< 600 nM
